Source: ChEMBL document CHEMBL5113521, “Discovery of a Novel Oral Proteasome Inhibitor to Block NLRP3 Inflammasome Activation with Anti-inflammation Activity” (J Med Chem, 2022)
Activity calls are given as the source filed them. The rule behind the calls is not given here.

What was measured:
[1] = MRT (0 to infinity) in Sprague-Dawley rat at 0.5 mg/kg, iv measured upto 24 hrs by liquid chromatography tandem mass spectrometry; format: ADME, organism-based; details: in vivo
[2] = Clearance in Sprague-Dawley rat at 0.5 mg/kg, iv measured upto 24 hrs by liquid chromatography tandem mass spectrometry; format: ADME, organism-based; details: in vivo
[3] = Cmax in Sprague-Dawley rat at 0.5 mg/kg, iv measured upto 24 hrs by liquid chromatography tandem mass spectrometry; format: ADME, organism-based; parameters: time < 24 hrs, dose 0.5 mg/kg, route iv; details: in vivo
[4] = biological target: NACHT, LRR and PYD domains-containing protein 3 (Mus musculus) (UniProt Q8R4B8); assay: Inhibition of NLRP3 inflammasome activation in LPS-stimulated mouse J774.A1 cells assessed as increase in Cbl-b expression at 30 to 100 nM preincubated for 1 hr followed by nigericin stimulation measured after 1 hr by immunoblot analysis; format: cell-based; details: dose 30-100 nM, time 2.0 hrs
[5] = biological target: T1, Interferon-inducible protein AIM2 (Mus musculus) (UniProt Q91VJ1); assay: Inhibition of AIM2 inflammasome activation in LPS-primed mouse BMDM cells assessed as reduction in IL-1beta secretion at 7.5 to 60 nM preincubated for 1 hr followed by FLA-ST Ultrapure stimulation by ELISA; format: cell-based; details: dose 7.5-60 nM
T1 sequence (whole entry): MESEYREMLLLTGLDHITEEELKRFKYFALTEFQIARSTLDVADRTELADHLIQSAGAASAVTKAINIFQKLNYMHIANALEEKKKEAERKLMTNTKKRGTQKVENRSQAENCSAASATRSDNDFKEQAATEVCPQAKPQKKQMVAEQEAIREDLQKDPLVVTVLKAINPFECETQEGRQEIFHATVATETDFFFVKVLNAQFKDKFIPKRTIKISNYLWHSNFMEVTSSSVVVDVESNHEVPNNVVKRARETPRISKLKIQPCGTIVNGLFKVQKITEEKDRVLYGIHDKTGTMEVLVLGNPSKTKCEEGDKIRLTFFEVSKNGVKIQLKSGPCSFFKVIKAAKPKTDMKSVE

[6] = tested on: Mus musculus; assay: Protection against DSS-induced C57BL/6 mouse ulcerative colitis model assessed as reduction in NLRP3 level in colon at 0.125 to 0.5 mg/kg, po by Western blot analysis; format: functional, organism-based; details: dose 0.125-0.5 mg/kg
[7] = tested on: Mus musculus; assay: Protection against DSS-induced acute colitis in C57BL/6 mouse model assessed as improvement in inflammatory cell infiltration at 0.125 to 0.5 mg/kg, po administered for 10 days by Hematoxylin and eosin staining based analysis; format: functional, organism-based; details: dose 0.125-0.5 mg/kg, time 10.0 day
[8] = biological target: NACHT, LRR and PYD domains-containing protein 3 (Mus musculus) (UniProt Q8R4B8); assay: Inhibition of NLRP3 inflammasome activation in LPS-stimulated mouse J774.A1 cells assessed as increase in c-Cbl expression at 7.5 to 60 nM preincubated for 1 hr followed by nigericin stimulation measured after 1 hr by immunoblot analysis; format: cell-based; details: dose 7.5-60 nM, time 2.0 hrs
[9] = tested on: J774.A1; assay: Inhibition of NF-kappaB in LPS treated mouse J774.A1 cells assessed as reduction in pro-IL-1beta expression at 7.5 to 60 nM incubated for 1 hr followed by LPS stimulation measured after 5 hrs by Western blot analysis; format: cell-based; details: dose 7.5-60 nM, time 6.0 hrs
[10] = biological target: NACHT, LRR and PYD domains-containing protein 3 (Mus musculus) (UniProt Q8R4B8); assay: Inhibition of NLRP3 inflammasome activation in LPS-stimulated mouse J774.A1 cells assessed as blockage of NLRP3-ASC protein-protein interaction at 15 to 60 nM preincubated for 1 hr followed by nigericin stimulation by co-immunoprecipitation assay; format: cell-based; details: dose 15-60 nM
[11] = AUC (0 to infinity) in Sprague-Dawley rat at 0.5 mg/kg, iv measured upto 24 hrs by liquid chromatography tandem mass spectrometry; format: ADME, organism-based; parameters: time < 24 hrs, dose 0.5 mg/kg, route iv; details: in vivo
[12] = Tmax in Sprague-Dawley rat at 0.5 mg/kg, iv measured upto 24 hrs by liquid chromatography tandem mass spectrometry; format: ADME, organism-based; details: in vivo
[13] = tested on: Mus musculus; assay: Anti-colitis activity against DSS-induced ulcerative colitis C57BL/6J mouse model assessed as suppression of DSS induced weight loss at 0.125 to 0.5 mg/kg, po administered every 72 hrs for 10 days; format: functional, organism-based; details: dose 0.125-0.5 mg/kg, time 10.0 day
[14] = tested on: J774.A1; assay: Inhibition of NF-kappaB in LPS treated mouse J774.A1 cells assessed as reduction in TNFalpha level at 7.5 to 60 nM incubated for 1 hr followed by LPS stimulation measured after 5 hrs by Western blot analysis; format: cell-based; details: dose 7.5-60 nM, time 6.0 hrs
[15] = AUC (0 to infinity) in Sprague-Dawley rat at 1 mg/kg, po measured upto 24 hrs by liquid chromatography tandem mass spectrometry; format: ADME, organism-based; parameters: dose 1 mg/kg, time < 24 hrs, route po; details: in vivo
[16] = biological target: NACHT, LRR and PYD domains-containing protein 3 (Mus musculus) (UniProt Q8R4B8); assay: Inhibition of NLRP3 inflammasome activation in LPS-primed mouse J774.A1 cells assessed as inhibition of IL-1 beta release in supernatant preincubated for 1 hr followed by nigericin stimulation measured after 1 hr by Western blot analysis; format: cell-based; details: dose 7.5-60 nM, time 2.0 hrs, DDE = dose-dependent effect
[17] = tested on: HEK293; assay: Cytotoxicity against HEK293 cells at less than 20 uM incubated for 24 hrs; format: toxicity, cell-based; details: human, hek293, 24 h
[18] = biological target: NACHT, LRR and PYD domains-containing protein 3 (Mus musculus) (UniProt Q8R4B8); assay: Inhibition of NLRP3 inflammasome activation in LPS-stimulated mouse J774.A1 cells assessed as increase in polyubiquitinated NLRP3 preincubated for 1 hr followed by nigericin stimulation measured after 1 hr by immunoblot analysis; format: cell-based; details: dose 7.5-60 nM, time 2.0 hrs, DDE = dose-dependent effect
[19] = Cmax in Sprague-Dawley rat at 1 mg/kg, po measured upto 24 hrs by liquid chromatography tandem mass spectrometry; format: ADME, organism-based; parameters: dose 1 mg/kg, time < 24 hrs, route po; details: in vivo
[20] = biological target: NACHT, LRR and PYD domains-containing protein 3 (Mus musculus) (UniProt Q8R4B8); assay: Inhibition of NLRP3 inflammasome activation in LPS/nigericin stimulated mouse BMDM cells assessed as […] in ASC speck formation at 15 to 60 nM preincubated for 1 hr followed by LPS/nigericin stimulation by DAPI staining based immunofluorescence assay; format: cell-based; details: dose 15-60 nM
[21] = biological target: T2, Proteasome Macropain subunit MB1 (Homo sapiens, UniProt P28074); assay: Inhibition of 20S proteasome beta5 subunit (unknown origin) using Suc-LLVY-AMC as flurogenic substrate measured after 1 hr by fluorescence based analysis; details: read-out: IC50
T2 sequence (P28074 whole entry): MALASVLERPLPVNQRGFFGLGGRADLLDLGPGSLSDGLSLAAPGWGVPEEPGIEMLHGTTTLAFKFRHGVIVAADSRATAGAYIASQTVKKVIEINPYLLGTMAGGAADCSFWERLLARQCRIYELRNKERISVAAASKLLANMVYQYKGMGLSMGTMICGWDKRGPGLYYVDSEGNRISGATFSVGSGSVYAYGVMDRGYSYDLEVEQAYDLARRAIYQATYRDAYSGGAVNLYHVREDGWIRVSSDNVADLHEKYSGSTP

[22] = tested on: J774.A1; assay: Inhibition of NF-kappaB in LPS treated mouse J774.A1 cells assessed as reduction in p65 level at 60 nM incubated for 1 hr followed by LPS stimulation measured after 5 hrs by Western blot analysis; format: cell-based; details: time 6.0 hrs
[23] = Oral bioavailability in Sprague-Dawley rat at 1 mg/kg measured upto 24 hrs by liquid chromatography tandem mass spectrometry; format: ADME, organism-based; details: in vivo
[24] = Apparent volume of distribution in Sprague-Dawley rat at 0.5 mg/kg, iv measured upto 24 hrs by liquid chromatography tandem mass spectrometry; format: ADME, organism-based; details: in vivo, read-out: Vz
[25] = tested on: Mus musculus; assay: Protection against DSS-induced C57BL/6 mouse ulcerative colitis model assessed as reduction in pro-IL-1 beta level in colon at 0.125 to 0.5 mg/kg, po by Western blot analysis; format: functional, organism-based; details: dose 0.125-0.5 mg/kg

Sequence of NACHT, LRR and PYD domains-containing protein 3 (Mus musculus) (Q8R4B8 whole entry, the tested form may be a part): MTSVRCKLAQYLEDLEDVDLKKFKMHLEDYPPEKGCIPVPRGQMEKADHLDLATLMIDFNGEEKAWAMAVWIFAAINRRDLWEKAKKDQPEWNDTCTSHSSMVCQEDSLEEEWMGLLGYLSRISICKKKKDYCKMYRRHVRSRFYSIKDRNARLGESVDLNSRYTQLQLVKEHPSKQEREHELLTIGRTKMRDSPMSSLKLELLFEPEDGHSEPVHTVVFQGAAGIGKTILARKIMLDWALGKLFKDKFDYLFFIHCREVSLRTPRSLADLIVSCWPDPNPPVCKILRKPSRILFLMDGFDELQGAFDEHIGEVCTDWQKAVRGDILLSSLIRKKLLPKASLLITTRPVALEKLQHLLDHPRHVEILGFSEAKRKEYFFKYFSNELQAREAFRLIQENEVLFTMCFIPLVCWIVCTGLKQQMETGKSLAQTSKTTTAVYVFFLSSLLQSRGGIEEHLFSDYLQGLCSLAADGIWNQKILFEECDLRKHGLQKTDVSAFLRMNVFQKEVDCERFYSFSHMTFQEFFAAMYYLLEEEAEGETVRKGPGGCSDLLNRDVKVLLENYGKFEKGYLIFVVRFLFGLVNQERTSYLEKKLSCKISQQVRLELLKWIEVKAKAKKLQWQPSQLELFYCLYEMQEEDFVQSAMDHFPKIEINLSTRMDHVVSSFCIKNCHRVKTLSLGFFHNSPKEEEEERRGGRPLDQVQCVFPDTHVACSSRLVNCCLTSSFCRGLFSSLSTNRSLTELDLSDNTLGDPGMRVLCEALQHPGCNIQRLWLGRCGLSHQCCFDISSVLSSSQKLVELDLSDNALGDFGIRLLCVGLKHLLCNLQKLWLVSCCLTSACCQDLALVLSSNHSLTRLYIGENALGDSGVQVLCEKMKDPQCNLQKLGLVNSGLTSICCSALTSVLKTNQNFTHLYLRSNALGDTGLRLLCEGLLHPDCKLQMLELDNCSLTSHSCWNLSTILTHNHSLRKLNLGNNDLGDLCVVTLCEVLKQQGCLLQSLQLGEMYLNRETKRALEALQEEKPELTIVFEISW

`CC(C)C[C@H](NC(=O)[C@H](Cc1ccccc1)NC(=O)c1c(F)cccc1F)B(O)O` showed an MRT inf [1] of 6.14 h, a clearance [2] of 18.8 mL/min/kg and a Cmax [3] of 377 ng/mL. The Activity [4] was “Active”, the inhibition [5] was “Active” and the Activity [6] was “Active”. For the same compound, the Activity [7] was “Active”, the Activity [8] was “Active” and the inhibition [9] was “Active”. The inhibition [10] was “Active”, the AUC [11] was 448.8 ng·h/mL and the Tmax [12] was 4.8 min. The Activity [13] was “Active”, the inhibition [14] was “Active” and the AUC [15] was 489.2 ng·h/mL. For the same compound, the inhibition [16] was “Dde”, the Activity [17] was “Non-Toxic” and the Activity [18] was “Dde”. The Cmax [19] was 208 ng/mL, the inhibition [20] was “Active” and the IC50 [21] was 3.7 nM. The inhibition [22] was “Active”, the bioavailability [23] was 48.1% and the Vd [24] was 7.7 L/kg. For the same compound, the Activity [25] was “Active”.
